# In patent publication US20090291857A1, “METHODS TO IDENTIFY INHIBITORS OF THE UNFOLDED PROTEIN RESPONSE” (THE BOARD OF TRUSTEES OF THE LELAND STANFORD JUNIOR …, priority 2006, published 2009):
# Target: T1, IRE1α-cyto (Homo sapiens, UniProt O75460)
# T1 construct: purified the full cytosolic portion of IRE1α (His6-IRE1α-cyto) containing both kinase and endonuclease domains; 6x-His; made in house; host or cells: bacteria
# Assay: In vitro IRE1α endonuclease (ribonuclease) assay
# Format: biochemical
# Details: 2.5 μM
# Procedure: The in vitro ribonuclease assays were carried out using purified IRE1α-cyto essentially as described. Gonzalez and Walter, Methods Mol Biol 160: 25-36 (2001); Gonzalez et al., Embo J 18: 3119-3132 (1999). For each reaction, 5 μg purified IRE1α-cyto was incubated with 300 ng of fluorescein-labeled RNA stem-loop substrate at 37° C. in a total volume of 300 μl. Aliquots (50 μl) were withdrawn at the indicated times and mixed with an equal volume of stop solution. Id. Reactions were analyzed by SDS-PAGE using 10-20% acrylamide gradient gels. The sequence for the hXBP-1 3′ RNA stem-loop substrate is as follows: 5′[…] G 3′ (SEQ ID NO: 8). […]
# HT1080 cells were exposed to DMSO vehicle (lane 1), irestatin 9389 (2.5 μM; lane 2) for 16 hours or Tm (5 μg/ml; lane 3) for 8 hours. Following treatments, cells were harvested, lysed, and analyzed by immunoblotting using anti-Grp78 antibody (top) or anti-actin (bottom) as a loading control. […] Cell lysates were analyzed by Western immunoblotting using anti-IRE1α (bottom) or anti-phospho-IRE1α antibodies (top). […] Lysates were analyzed by Western blot using antisera specific for phospho-JNK1 (top) or total JNK1 (bottom). […] F. Quantification of RNA cleavage kinetics. […] Samples were analyzed as in (E).
# Next we determined whether irestatin 9389 inhibited the endonuclease function of IRE1α. […]
# T1 sequence (O75460 465-977 limits assumed): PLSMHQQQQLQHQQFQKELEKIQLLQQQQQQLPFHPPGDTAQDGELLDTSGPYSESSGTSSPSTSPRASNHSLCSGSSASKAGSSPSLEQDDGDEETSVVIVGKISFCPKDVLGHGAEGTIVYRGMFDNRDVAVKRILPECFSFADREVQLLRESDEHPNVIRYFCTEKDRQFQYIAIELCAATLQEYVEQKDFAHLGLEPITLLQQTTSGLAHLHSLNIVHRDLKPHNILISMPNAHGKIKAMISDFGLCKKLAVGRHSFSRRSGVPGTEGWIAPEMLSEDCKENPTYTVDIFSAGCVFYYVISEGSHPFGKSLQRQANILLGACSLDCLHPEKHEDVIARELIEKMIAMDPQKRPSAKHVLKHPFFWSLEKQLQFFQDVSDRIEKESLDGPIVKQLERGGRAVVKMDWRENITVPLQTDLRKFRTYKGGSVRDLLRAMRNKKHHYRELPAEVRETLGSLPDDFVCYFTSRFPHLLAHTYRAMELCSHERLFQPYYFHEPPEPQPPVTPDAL
smiles,measurement,value
Cc1csc(NC(=O)CSc2nc3c(c(C(F)(F)F)c2C#N)CCC3)n1 [Compound 9389],cleavage of XBP-1 RNA substrate by His6-IRE1α-cyto,strongly inhibited cleavage
